Test results: article PMC5794799, “Kaempferol mitigates Endoplasmic Reticulum Stress Induced Cell Death by targeting caspase 3/7” (Scientific Reports, 2018)

Target: T1, caspase-3 (Homo sapiens, UniProt P42574)
T1 construct: gene CASP3; recombinant active caspase-3 enzyme
T1 sequence (P42574 29-175): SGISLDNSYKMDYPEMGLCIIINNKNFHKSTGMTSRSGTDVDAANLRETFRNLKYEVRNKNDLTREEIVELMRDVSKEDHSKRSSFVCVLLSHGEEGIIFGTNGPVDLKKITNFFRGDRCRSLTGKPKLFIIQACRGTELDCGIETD
T1 sequence (P42574 176-277): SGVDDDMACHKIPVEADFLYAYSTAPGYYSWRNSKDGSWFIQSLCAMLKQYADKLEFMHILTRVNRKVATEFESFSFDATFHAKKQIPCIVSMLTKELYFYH
Assay: recombinant caspase-3 activity assay with luminogenic Z-DEVD-aminoluciferin (Caspase-Glo […]), dose response
Assay type: biochemical

With `O=c1c(O)c(-c2ccc(O)cc2)oc2cc(O)cc(O)c12` [kaempferol] the IC50 was 5.65 µM.
